According to ChEMBL document CHEMBL1240356, “Efficacy profiles of daptomycin for treatment of invasive and noninvasive pulmonary infections with Streptococcus pneumoniae” (2010):
The source made the active and inactive calls. The calls are words filed in the database; no cut-off is given here.

Assays:
Streptococcus pneumoniae [1] = assay: Antibacterial activity against 1.5 x 10^7 CFU Streptococcus pneumoniae serotype 19 infected in therapeutic C57BL/6 mouse model assessed as survival rate at 6 mg/kg, ip qd beginning at time of infection measured after 6 days post infection; type: functional; details: route intraperitoneal
Streptococcus pneumoniae [2] = assay: Antibacterial activity against 1.5 x 10^7 CFU Streptococcus pneumoniae serotype 2 infected in therapeutic C57BL/6 mouse model assessed as survival rate at 6 mg/kg, ip qd beginning 2 days post infection measured after 3 days post infection; type: functional; details: route intraperitoneal
Streptococcus pneumoniae [3] = assay: Antibacterial activity against high dose 1.5 x 10^7 CFU Streptococcus pneumoniae serotype 19 infected in semitherapeutic C57BL/6 mouse model assessed as bacterial count in lung at 6 mg/kg, ip measured after 4 days post infection; type: functional; details: route intraperitoneal
Streptococcus pneumoniae [4] = assay: Antibacterial activity against low dose 5 x 10^6 CFU Streptococcus pneumoniae serotype 2 infected in semitherapeutic C57BL/6 mouse model assessed as bacterial count in lung at 6 mg/kg, ip measured after 10 day post infection; type: functional; details: route intraperitoneal
Streptococcus pneumoniae [5] = assay: Antibacterial activity against high dose 1.5 x 10^7 CFU Streptococcus pneumoniae serotype 2 infected in semitherapeutic C57BL/6 mouse model assessed as reduction of bacteremia at 6 mg/kg, ip measured after 10 day post infection; type: functional, organism-based; parameters: dose 6 mg/kg
Streptococcus pneumoniae [6] = assay: Antibacterial activity against high dose 1.5 x 10^7 CFU Streptococcus pneumoniae serotype 2 infected in semitherapeutic C57BL/6 mouse model assessed as bacterial count in spleen at 6 mg/kg, ip measured after 2 days post infection; type: functional; details: route intraperitoneal
Streptococcus pneumoniae [7] = assay: Antibacterial activity against high dose 1.5 x 10^7 CFU Streptococcus pneumoniae serotype 2 infected in semitherapeutic C57BL/6 mouse model assessed as bacterial count in lung at 6 mg/kg, ip measured after 1 day post infection; type: functional; details: route intraperitoneal
Streptococcus pneumoniae [8] = assay: Antibacterial activity against 1.5 x 10^7 CFU Streptococcus pneumoniae serotype 19 infected in therapeutic C57BL/6 mouse model assessed as increase in compound level in BALF at 6 mg/kg, ip measured on day 3 post infection; type: functional, organism-based; parameters: dose 6 mg/kg
Streptococcus pneumoniae [9] = assay: Antibacterial activity against 1.5 x 10^7 CFU Streptococcus pneumoniae serotype 2 infected in therapeutic C57BL/6 mouse model assessed as increase in compound level in BALF at 6 mg/kg, ip measured on day 3 post infection; type: functional, organism-based; parameters: dose 6 mg/kg
Streptococcus pneumoniae [10] = assay: Antibacterial activity against 1.5 x 10^7 CFU Streptococcus pneumoniae serotype 2 infected in therapeutic C57BL/6 mouse model assessed as survival rate at 20 mg/kg, ip qd beginning 2 days post infection measured after 3 days post infection; type: functional; details: route intraperitoneal
Streptococcus pneumoniae [11] = assay: Antibacterial activity against high dose 1.5 x 10^7 CFU Streptococcus pneumoniae serotype 2 infected in semitherapeutic C57BL/6 mouse model assessed as bacterial count in liver at 6 mg/kg, ip measured after 1 day post infection; type: functional; details: route intraperitoneal
Streptococcus pneumoniae [12] = assay: Antibacterial activity against low dose 5 x 10^6 CFU Streptococcus pneumoniae serotype 19 infected in semitherapeutic C57BL/6 mouse model assessed as bacterial count in lung at 6 mg/kg, ip measured after 2 days post infection; type: functional; details: route intraperitoneal
Streptococcus pneumoniae [13] = assay: Antibacterial activity against high dose 1.5 x 10^7 CFU Streptococcus pneumoniae serotype 2 infected in semitherapeutic C57BL/6 mouse model assessed as bacterial count in blood at 6 mg/kg, ip measured after 2 days post infection; type: functional; details: route intraperitoneal
Streptococcus pneumoniae [14] = assay: Antibacterial activity against high dose 1.5 x 10^7 CFU Streptococcus pneumoniae serotype 2 infected in therapeutic C57BL/6 mouse model assessed as reduction of bacteremia at 6 mg/kg, ip measured after 5 day post infection; type: functional, organism-based; parameters: dose 6 mg/kg
Streptococcus pneumoniae [15] = assay: Antibacterial activity against high dose 1.5 x 10^7 CFU Streptococcus pneumoniae serotype 2 infected in semitherapeutic C57BL/6 mouse model assessed as bacterial count in spleen at 6 mg/kg, ip measured after 1 day post infection; type: functional; details: route intraperitoneal
Streptococcus pneumoniae [16] = assay: Antibacterial activity against low dose 5 x 10^6 CFU Streptococcus pneumoniae serotype 2 infected in semitherapeutic C57BL/6 mouse model assessed as reduction of bacteremia at 6 mg/kg, ip measured after 5 day post infection; type: functional, organism-based; parameters: dose 6 mg/kg
Streptococcus pneumoniae [17] = assay: Antibacterial activity against 1.5 x 10^7 CFU Streptococcus pneumoniae serotype 19 infected in therapeutic C57BL/6 mouse model assessed as effect on lung permeability at 6 mg/kg, ip measured on day 3 post infection; type: functional, organism-based; parameters: dose 6 mg/kg
Streptococcus pneumoniae [18] = assay: Antibacterial activity against low dose 5 x 10^6 CFU Streptococcus pneumoniae serotype 2 infected in semitherapeutic C57BL/6 mouse model at 6 mg/kg, ip over a period of 14 days; type: functional, organism-based; parameters: dose 6 mg/kg
Streptococcus pneumoniae [19] = assay: Antibacterial activity against 1.5 x 10^7 CFU Streptococcus pneumoniae serotype 2 infected in therapeutic C57BL/6 mouse model assessed as increase in serum compound level at 6 mg/kg, ip measured on day 3 post infection; type: functional, organism-based; parameters: dose 6 mg/kg
Streptococcus pneumoniae [20] = assay: Antibacterial activity against high dose 1.5 x 10^7 CFU Streptococcus pneumoniae serotype 19 infected in semitherapeutic C57BL/6 mouse model assessed as bacterial count in lung at 6 mg/kg, ip measured after 2 days post infection; type: functional; details: route intraperitoneal
Streptococcus pneumoniae [21] = assay: Antibacterial activity against low dose 5 x 10^6 CFU Streptococcus pneumoniae serotype 19 infected in semitherapeutic C57BL/6 mouse model assessed as bacterial count in lung at 6 mg/kg, ip measured after 1 day post infection; type: functional; details: route intraperitoneal
Streptococcus pneumoniae [22] = assay: Antibacterial activity against low dose 5 x 10^6 CFU Streptococcus pneumoniae serotype 19 infected in semitherapeutic C57BL/6 mouse model assessed as bacteremic mouse at 6 mg/kg, ip measured after 10 day post infection; type: functional, organism-based; parameters: dose 6 mg/kg
Streptococcus pneumoniae [23] = assay: Antibacterial activity against low dose 5 x 10^6 CFU Streptococcus pneumoniae serotype 19 infected in semitherapeutic C57BL/6 mouse model assessed as bacteremic mouse at 6 mg/kg, ip measured after 5 day post infection; type: functional, organism-based; parameters: dose 6 mg/kg
Streptococcus pneumoniae [24] = assay: Antibacterial activity against high dose 1.5 x 10^7 CFU Streptococcus pneumoniae serotype 2 infected in therapeutic C57BL/6 mouse model assessed as bacterial count in lung at 6 mg/kg, ip measured after 4 days post infection; type: functional; details: route intraperitoneal
Streptococcus pneumoniae [25] = assay: Antibacterial activity against high dose 1.5 x 10^7 CFU Streptococcus pneumoniae serotype 2 infected in therapeutic C57BL/6 mouse model assessed as bacterial count in lung at 6 mg/kg, ip measured after 3 days post infection; type: functional; details: route intraperitoneal
Streptococcus pneumoniae [26] = assay: Antibacterial activity against 5 x 10^6 CFU Streptococcus pneumoniae serotype 2 infected in semitherapeutic C57BL/6 mouse model assessed as bacterial count in liver at 6 mg/kg, ip measured after 1 day post infection; type: functional; details: route intraperitoneal
Streptococcus pneumoniae [27] = assay: Antibacterial activity against 1.5 x 10^7 CFU Streptococcus pneumoniae serotype 19 infected in therapeutic C57BL/6 mouse model assessed as effect on leukocytes infiltration in BALF at 6 mg/kg, ip measured on day 3 post infection; type: functional, organism-based; parameters: dose 6 mg/kg
Streptococcus pneumoniae [28] = assay: Antibacterial activity against high dose 1.5 x 10^7 CFU Streptococcus pneumoniae serotype 19 infected in semitherapeutic C57BL/6 mouse model assessed as reduction of bacteremia at 6 mg/kg, ip measured after 1 day post infection; type: functional, organism-based; parameters: dose 6 mg/kg
Streptococcus pneumoniae [29] = assay: Antibacterial activity against low dose 5 x 10^6 CFU Streptococcus pneumoniae serotype 19 infected in semitherapeutic C57BL/6 mouse model assessed as bacteremic mouse at 6 mg/kg, ip measured after 2 days post infection; type: functional, organism-based; parameters: dose 6 mg/kg
Streptococcus pneumoniae [30] = assay: Antibacterial activity against low dose 5 x 10^6 CFU Streptococcus pneumoniae serotype 19 infected in semitherapeutic C57BL/6 mouse model assessed as bacterial count in lung at 6 mg/kg, ip measured after 3 days post infection; type: functional; details: route intraperitoneal

SMILES: CCCCCCCCCC(=O)N[C@@H](Cc1c[nH]c2ccccc12)C(=O)N[C@H](CC(N)=O)C(=O)N[C@@H](CC(=O)O)C(=O)N[C@@H]1C(=O)NCC(=O)N[C@@H](CCCN)C(=O)N[C@@H](CC(=O)O)C(=O)N[C@H](C)C(=O)N[C@@H](CC(=O)O)C(=O)NCC(=O)N[C@H](CO)C(=O)N[C@@H]([C@H](C)CC(=O)O)C(=O)N[C@@H](CC(=O)c2ccccc2N)C(=O)O[C@@H]1C
- Activity (Streptococcus pneumoniae [1]): 40%
- Activity (Streptococcus pneumoniae [2]): 70%
- log10cfu (Streptococcus pneumoniae [3]): 4.5
- log10cfu (Streptococcus pneumoniae [4]): 2.5
- Activity (Streptococcus pneumoniae [5]): Active
- log10cfu (Streptococcus pneumoniae [6]): 0.4
- log10cfu (Streptococcus pneumoniae [7]): 6
- Activity (Streptococcus pneumoniae [8]): Active
- Activity (Streptococcus pneumoniae [9]): inactive
- Activity (Streptococcus pneumoniae [10]): 60%
- log10cfu (Streptococcus pneumoniae [11]): 1.2
- log10cfu (Streptococcus pneumoniae [12]): 5.5
- log10cfu (Streptococcus pneumoniae [13]): 0.1
- Activity (Streptococcus pneumoniae [14]): Active
- log10cfu (Streptococcus pneumoniae [15]): 1.4
- Activity (Streptococcus pneumoniae [16]): Active
- Activity (Streptococcus pneumoniae [17]): Active
- Activity (Streptococcus pneumoniae [18]): Active
- Activity (Streptococcus pneumoniae [19]): Active
- log10cfu (Streptococcus pneumoniae [20]): 6.2
- log10cfu (Streptococcus pneumoniae [21]): 6.3
- Activity (Streptococcus pneumoniae [22]): Active
- Activity (Streptococcus pneumoniae [23]): Active
- log10cfu (Streptococcus pneumoniae [24]): 2.9
- log10cfu (Streptococcus pneumoniae [25]): 5.5
- log10cfu (Streptococcus pneumoniae [26]): 1.8
- Activity (Streptococcus pneumoniae [27]): Active
- Activity (Streptococcus pneumoniae [28]): Active
- Activity (Streptococcus pneumoniae [29]): Active
- log10cfu (Streptococcus pneumoniae [30]): 5.5
